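Five concentrations, 48 hours, 96-well plates. The concentration for 50% growth inhibition is given as GI50. TGI denotes the concentration required for complete inhibition of growth.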
Assays:
Assay in all cases: NCI-60 cell line screen, 48 h
[1] = system: K-562 leukemia
[2] = system: NCI-H23 lung
[3] = system: OVCAR-8 ovarian
[4] = system: A549 NSCLC
[5] = system: COLO 205 colon
[6] = system: UO-31 renal
[7] = system: HCC-2998 colon
[8] = system: NCI/ADR-RES ovarian
[9] = system: NCI-H522 lung
[10] = system: SW-620 colon
[11] = system: UACC-62 melanoma
[12] = system: HOP-92 NSCLC
[13] = system: ACHN renal
[14] = system: 786-0 renal
[15] = system: SR leukemia
[16] = system: SK-MEL-2 melanoma
[17] = system: SNB-75 CNS
[18] = system: CCRF-CEM leukemia
[19] = system: MALME-3M melanoma
[20] = system: SF-539 CNS
[21] = system: OVCAR-5 ovarian
[22] = system: HL-60(TB) leukemia
[23] = system: HCT-116 colon
[24] = system: HT29 colon
[25] = system: SK-MEL-5 melanoma
[26] = system: MDA-MB-231 breast
[27] = system: T-47D breast
[28] = system: RXF 393 renal
[29] = system: KM12 colon

Compound: CN[C@H](C#Cc1c(F)ccc2c1/C(=C/c1[nH]ccc1OC)C(=O)N2)CO
- GI50 [1]: 989 nM
- TGI [1]: 5890 nM
- GI50 [2]: 657 nM
- TGI [2]: 3110 nM
- GI50 [3]: 551 nM
- TGI [3]: 4250 nM
- GI50 [4]: 354 nM
- TGI [4]: 2820 nM
- GI50 [5]: 897 nM
- TGI [5]: 3390 nM
- GI50 [6]: 335 nM
- TGI [6]: 2540 nM
- GI50 [7]: 746 nM
- TGI [7]: 3270 nM
- GI50 [8]: 973 nM
- TGI [8]: 6580 nM
- GI50 [9]: 659 nM
- TGI [9]: 2450 nM
- GI50 [10]: 476 nM
- TGI [10]: 2710 nM
- GI50 [11]: 671 nM
- TGI [11]: 4600 nM
- GI50 [12]: 3170 nM
- TGI [12]: 11800 nM
- GI50 [13]: 115 nM
- TGI [13]: 2710 nM
- GI50 [14]: 462 nM
- TGI [14]: 4180 nM
- GI50 [15]: 109 nM
- TGI [15]: 1910 nM
- GI50 [16]: 199 nM
- TGI [16]: 749 nM
- GI50 [17]: 77.7 nM
- TGI [17]: 3880 nM
- GI50 [18]: 349 nM
- TGI [18]: 1830 nM
- GI50 [19]: 1460 nM
- TGI [19]: 5060 nM
- GI50 [20]: 431 nM
- TGI [20]: 1530 nM
- GI50 [21]: 917 nM
- TGI [21]: 3710 nM
- GI50 [22]: 513 nM
- TGI [22]: 2010 nM
- GI50 [23]: 136 nM
- TGI [23]: 5210 nM
- GI50 [24]: 438 nM
- TGI [24]: 2390 nM
- GI50 [25]: 511 nM
- TGI [25]: 1920 nM
- GI50 [26]: 787 nM
- TGI [26]: 3000 nM
- GI50 [27]: 2270 nM
- TGI [27]: 13600 nM
- GI50 [28]: 85.5 nM
- TGI [28]: 704 nM
- GI50 [29]: 36 nM

From PubChem BioAssay (NCI)
